Test results taken from PubChem BioAssay (NCI).
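Five concentrations, 48 hours, 96-well plates. TGI is the concentration that stops growth completely.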

What was measured:
Experiment in all cases: inhibition of tumour cell growth, NCI panel, 48 h
[1] = system: 786-0 renal
[2] = system: A498 renal
[3] = system: A549 NSCLC
[4] = system: ACHN renal
[5] = system: BT-549 breast
[6] = system: CAKI-1 renal
[7] = system: CCRF-CEM leukemia
[8] = system: COLO 205 colon
[9] = system: DU-145 prostate
[10] = system: HCC-2998 colon
[11] = system: HCT-116 colon
[12] = system: HCT-15 colon
[13] = system: HOP-62 NSCLC
[14] = system: HOP-92 NSCLC
[15] = system: HS 578T breast
[16] = system: HT29 colon
[17] = system: IGROV1 ovarian
[18] = system: K-562 leukemia
[19] = system: KM12 colon
[20] = system: M14 melanoma
[21] = system: MALME-3M melanoma
[22] = system: MCF7 breast
[23] = system: MDA-MB-231 breast
[24] = system: MDA-MB-435
[25] = system: MOLT-4 leukemia
[26] = system: NCI-H226 lung
[27] = system: NCI-H23 lung
[28] = system: NCI-H460 lung
[29] = system: NCI-H522 lung
[30] = system: NCI/ADR-RES ovarian
[31] = system: OVCAR-3 ovarian
[32] = system: OVCAR-4 ovarian
[33] = system: OVCAR-5 ovarian
[34] = system: OVCAR-8 ovarian
[35] = system: PC-3 prostate
[36] = system: RPMI-8226 leukemia
[37] = system: RXF 393 renal
[38] = system: SF-268 CNS
[39] = system: SF-295 CNS
[40] = system: SF-539 CNS
[41] = system: SK-MEL-2 melanoma
[42] = system: SK-MEL-28 melanoma
[43] = system: SK-MEL-5 melanoma
[44] = system: SK-OV-3 ovarian
[45] = system: SN12C renal
[46] = system: SNB-75 CNS
[47] = system: SR leukemia
[48] = system: SW-620 colon
[49] = system: T-47D breast
[50] = system: TK-10 renal
[51] = system: U251 CNS
[52] = system: UACC-257 melanoma
[53] = system: UACC-62 melanoma
[54] = system: UO-31 renal
[55] = system: EKVX NSCLC
[56] = system: HL-60(TB) leukemia
[57] = system: SNB-19 CNS

`COc1ccc2c(c1)-c1c(c3cc(OC)ccc3n1CCN1CCOCC1)CC2` showed a TGI [1] of 42.5 µM, a TGI [2] of over 100 µM and a TGI [3] of over 100 µM. The TGI [4] was over 100 µM, the TGI [5] was over 100 µM and the TGI [6] was over 100 µM. It also gave a TGI [7] of 35.6 µM, a TGI [8] of 37.3 µM and a TGI [9] of over 100 µM. For the same compound, the TGI [10] was 18.5 µM, the TGI [11] was over 100 µM and the TGI [12] was 39.4 µM. For the same compound, the TGI [13] was over 100 µM, the TGI [14] was over 100 µM and the TGI [15] was 39.9 µM. The TGI [16] was 28.1 µM, the TGI [17] was over 100 µM and the TGI [18] was 36.2 µM. For the same compound, the TGI [19] was over 100 µM, the TGI [20] was 35 µM and the TGI [21] was 79.2 µM. It also gave a TGI [22] of over 100 µM, a TGI [23] of over 100 µM and a TGI [24] of over 100 µM. It also gave a TGI [25] of 33.6 µM, a TGI [26] of 30.6 µM and a TGI [27] of over 100 µM. It also gave a TGI [28] of over 100 µM, a TGI [29] of over 100 µM and a TGI [30] of 98.4 µM. It also gave a TGI [31] of over 100 µM, a TGI [32] of over 100 µM and a TGI [33] of over 100 µM. For the same compound, the TGI [34] was over 100 µM, the TGI [35] was over 100 µM and the TGI [36] was 85.5 µM. For the same compound, the TGI [37] was 98 µM, the TGI [38] was over 100 µM and the TGI [39] was 55.2 µM. It also gave a TGI [40] of 93.6 µM, a TGI [41] of over 100 µM and a TGI [42] of over 100 µM. For the same compound, the TGI [43] was 79.5 µM, the TGI [44] was over 100 µM and the TGI [45] was over 100 µM. The TGI [46] was over 100 µM, the TGI [47] was 22 µM and the TGI [48] was over 100 µM. The TGI [49] was over 100 µM, the TGI [50] was over 100 µM and the TGI [51] was over 100 µM. The TGI [52] was over 100 µM, the TGI [53] was 52.6 µM and the TGI [54] was over 100 µM.
`O=[N+]([O-])c1ccc(-c2nc(/C=N/N3CCCCC3)cs2)o1` showed a TGI [1] of over 100 µM, a TGI [3] of over 100 µM and a TGI [4] of over 100 µM. The TGI [5] was over 100 µM, the TGI [6] was over 100 µM and the TGI [8] was over 100 µM. The TGI [9] was over 100 µM, the TGI [55] was over 100 µM and the TGI [11] was over 100 µM. For the same compound, the TGI [12] was over 100 µM, the TGI [56] was over 100 µM and the TGI [13] was over 100 µM. For the same compound, the TGI [14] was over 100 µM, the TGI [15] was over 100 µM and the TGI [16] was 57.1 µM. The TGI [17] was over 100 µM, the TGI [18] was over 100 µM and the TGI [19] was over 100 µM. The TGI [20] was over 100 µM, the TGI [21] was 76.6 µM and the TGI [22] was over 100 µM. The TGI [23] was over 100 µM, the TGI [24] was 62.6 µM and the TGI [25] was 67 µM. The TGI [26] was over 100 µM, the TGI [27] was over 100 µM and the TGI [28] was over 100 µM. The TGI [29] was over 100 µM, the TGI [30] was over 100 µM and the TGI [31] was 82.4 µM. It also gave a TGI [32] of over 100 µM, a TGI [33] of over 100 µM and a TGI [34] of over 100 µM. It also gave a TGI [35] of over 100 µM, a TGI [36] of 39.8 µM and a TGI [37] of over 100 µM. It also gave a TGI [38] of over 100 µM, a TGI [39] of over 100 µM and a TGI [40] of over 100 µM. It also gave a TGI [41] of over 100 µM, a TGI [42] of over 100 µM and a TGI [43] of 59.5 µM. The TGI [44] was over 100 µM, the TGI [45] was 68.1 µM and the TGI [57] was over 100 µM. The TGI [46] was over 100 µM, the TGI [47] was 73 µM and the TGI [48] was over 100 µM. For the same compound, the TGI [49] was over 100 µM, the TGI [50] was over 100 µM and the TGI [51] was over 100 µM. It also gave a TGI [52] of 50.7 µM, a TGI [53] of over 100 µM and a TGI [54] of over 100 µM.
